Test system: viral and/or fungal and/or bacterial
Conditions: no test conditions given

For “1-hexadecanaminium, N,N,N,trimethyl-tricyclo[3.3.1.13,7]decane-2-acetate(1:1) [salt of the invention]”, the “viral and/or fungal and/or bacterial inhibition action” value was “greater than 4 log”.

Source: patent EP4063344A1, “SALT OF 2-ADAMANTYL ACETIC ACID HAVING ANTI-VIRAL ACTIVITY, FORMULATIONS THEREOF AND USES THEREOF” (Sciamannini, Umbro, priority 2021, dated 2022)
